According to PubChem BioAssay AID1745844 (Carcinogenic Potency Database (CPDB), 2022):
Calls of active or inactive are those of the source. No rule for the calls is given here.

Tested on: rodent lifetime carcinogenesis bioassay, tumor incidence TD50
Test: chronic cancer bioassays in animals – CPDB, compiled studies (AID 1745844)

Nc1cc(S(=O)(=O)[O-])cc2cc(S(=O)(=O)[O-])c(N=Nc3ccc(-c4ccc(N=Nc5c(S(=O)(=O)[O-])cc6cc(S(=O)(=O)[O-])cc(N)c6c5O)c(O)c4)cc3O)c(O)c12.[Cu].[Cu].[Na+].[Na+].[Na+].[Na+]
TD50 (mouse, strain B6C3F1, females, in feed, site: any site (literature study), lesion: several types, types named in the paper, dosed 103 weeks, study length 106 weeks): 1530 mg/kg/day
TD50 (mouse, strain B6C3F1, females, in feed, site: liver, lesion: hepatoblastoma + hepatocellular carcinoma, dosed 103 weeks, study length 106 weeks): 4000 mg/kg/day
TD50 (mouse, strain B6C3F1, females, in feed, site: liver, lesion: hepatocellular adenoma + hepatoblastoma + hepatocellular carcinoma, dosed 103 weeks, study length 106 weeks): 711 mg/kg/day
TD50 (mouse, strain B6C3F1, females, in feed, site: liver, lesion: hepatocellular adenoma + hepatocellular carcinoma, dosed 103 weeks, study length 106 weeks): 711 mg/kg/day
TD50 (mouse, strain B6C3F1, females, in feed, site: liver, lesion: hepatocellular adenoma, dosed 103 weeks, study length 106 weeks): 774 mg/kg/day
TD50 (mouse, strain B6C3F1, females, in feed, site: liver, lesion: hepatocellular carcinoma, dosed 103 weeks, study length 106 weeks): 4570 mg/kg/day
TD50 (mouse, strain B6C3F1, males, in feed, site: any site (literature study), lesion: several types, types named in the paper, dosed 103 weeks, study length 105 weeks): 1910 mg/kg/day
TD50 (mouse, strain B6C3F1, males, in feed, site: jejunum, lesion: carcinoma, dosed 103 weeks, study length 105 weeks): 20300 mg/kg/day
carcinogen call (mouse, strain B6C3F1, males, in feed, site: kidney, lesion: tubule adenoma + tubule carcinoma, dosed 103 weeks, study length 105 weeks): e
TD50 (mouse, strain B6C3F1, males, in feed, site: kidney, lesion: tubule adenoma, dosed 103 weeks, study length 105 weeks): 195000 mg/kg/day
carcinogen call (mouse, strain B6C3F1, males, in feed, site: kidney, lesion: tubule carcinoma, dosed 103 weeks, study length 105 weeks): e
TD50 (mouse, strain B6C3F1, males, in feed, site: liver, lesion: hepatocellular adenoma + hepatoblastoma + hepatocellular carcinoma, dosed 103 weeks, study length 105 weeks): 1080 mg/kg/day
TD50 (mouse, strain B6C3F1, males, in feed, site: liver, lesion: hepatocellular adenoma + hepatocellular carcinoma, dosed 103 weeks, study length 105 weeks): 1080 mg/kg/day
TD50 (mouse, strain B6C3F1, males, in feed, site: liver, lesion: hepatocellular adenoma, dosed 103 weeks, study length 105 weeks): 1210 mg/kg/day
TD50 (mouse, strain B6C3F1, males, in feed, site: liver, lesion: hepatocellular carcinoma, dosed 103 weeks, study length 105 weeks): 2990 mg/kg/day
TD50 (rat, strain Fischer 344, females, in feed, site: any site (literature study), lesion: several types, types named in the paper, dosed 103 weeks, study length 104 weeks): 653 mg/kg/day
TD50 (rat, strain Fischer 344, females, in feed, site: uterus, lesion: endometrial stromal polyp, dosed 103 weeks, study length 104 weeks): 83.5 mg/kg/day (inactive)
TD50 (rat, strain Fischer 344, males, in feed, site: any site (literature study), lesion: several types, types named in the paper, dosed 103 weeks, study length 104 weeks): 921 mg/kg/day
TD50 (rat, strain Fischer 344, males, in feed, site: forestomach, lesion: squamous-cell carcinoma + squamous-cell papilloma, dosed 103 weeks, study length 104 weeks): 2350 mg/kg/day
carcinogen call (rat, strain Fischer 344, males, in feed, site: forestomach, lesion: squamous-cell carcinoma, dosed 103 weeks, study length 104 weeks): e
TD50 (rat, strain Fischer 344, males, in feed, site: forestomach, lesion: squamous-cell papilloma, dosed 103 weeks, study length 104 weeks): 3140 mg/kg/day
TD50 (rat, strain Fischer 344, males, in feed, site: liver, lesion: hepatocellular adenoma + hepatoblastoma + hepatocellular carcinoma, dosed 103 weeks, study length 104 weeks): 5050 mg/kg/day
TD50 (rat, strain Fischer 344, males, in feed, site: palate, lesion: basosquamous tumor, benign + squamous-cell carcinoma + squamous-cell papilloma, dosed 103 weeks, study length 104 weeks): 1380 mg/kg/day
TD50 (rat, strain Fischer 344, males, in feed, site: palate, lesion: basosquamous tumor, benign, dosed 103 weeks, study length 104 weeks): 11500 mg/kg/day
TD50 (rat, strain Fischer 344, males, in feed, site: palate, lesion: squamous-cell carcinoma + squamous-cell papilloma, dosed 103 weeks, study length 104 weeks): 1570 mg/kg/day
TD50 (rat, strain Fischer 344, males, in feed, site: palate, lesion: squamous-cell carcinoma, dosed 103 weeks, study length 104 weeks): 9510 mg/kg/day
TD50 (rat, strain Fischer 344, males, in feed, site: palate, lesion: squamous-cell papilloma, dosed 103 weeks, study length 104 weeks): 1920 mg/kg/day

Cc1ccc(-c2cc(C(F)(F)F)nn2-c2ccc(S(N)(=O)=O)cc2)cc1
carcinogen call (rat, strain Fischer 344, males, in feed, site: colon, lesion: one or several types, types not named, dosed 53 weeks, study length 53 weeks): negative (inactive)

C=CC(N)=O
TD50 (rat, strain Fischer 344, females, in drinking water, site: brain, lesion: astrocytoma, dosed 104 weeks, study length 104 weeks): 38.8 mg/kg/day
TD50 (rat, strain Fischer 344, females, in drinking water, site: brain, lesion: astrocytoma, dosed 107 weeks, study length 107 weeks): 71.8 mg/kg/day
TD50 (rat, strain Fischer 344, females, in drinking water, site: brain, lesion: oligodendroglioma, dosed 104 weeks, study length 104 weeks): 259 mg/kg/day
TD50 (rat, strain Fischer 344, females, in drinking water, site: central nervous system, lesion: astrocytoma, dosed 104 weeks, study length 104 weeks): 19.5 mg/kg/day
TD50 (rat, strain Fischer 344, females, in drinking water, site: central nervous system, lesion: glial tumors (oligodendroglioma and astrocytoma), dosed 104 weeks, study length 104 weeks): 17.3 mg/kg/day
TD50 (rat, strain Fischer 344, females, in drinking water, site: central nervous system, lesion: glial tumors (oligodendroglioma and astrocytoma), dosed 107 weeks, study length 107 weeks): 57.2 mg/kg/day
TD50 (rat, strain Fischer 344, females, in drinking water, site: clitoral gland, lesion: adenoma, dosed 104 weeks, study length 104 weeks): 19 mg/kg/day
TD50 (rat, strain Fischer 344, females, in drinking water, site: mammary gland, lesion: adenocarcinoma, dosed 104 weeks, study length 104 weeks): 17.6 mg/kg/day
TD50 (rat, strain Fischer 344, females, in drinking water, site: mammary gland, lesion: adenocarcinoma, dosed 107 weeks, study length 107 weeks): 100 mg/kg/day
TD50 (rat, strain Fischer 344, females, in drinking water, site: mammary gland, lesion: benign tumor, dosed 104 weeks, study length 104 weeks): 4.21 mg/kg/day
TD50 (rat, strain Fischer 344, females, in drinking water, site: mammary gland, lesion: fibroadenoma, dosed 104 weeks, study length 104 weeks): 8.73 mg/kg/day
TD50 (rat, strain Fischer 344, females, in drinking water, site: mammary gland, lesion: fibroadenoma, dosed 107 weeks, study length 107 weeks): 9.33 mg/kg/day
TD50 (rat, strain Fischer 344, females, in drinking water, site: mammary gland, lesion: several types, types named in the paper, dosed 107 weeks, study length 107 weeks): 8.18 mg/kg/day
TD50 (rat, strain Fischer 344, females, in drinking water, site: mammary tissue, wider than the gland, lesion: fibroma, dosed 104 weeks, study length 104 weeks): 20.9 mg/kg/day
TD50 (rat, strain Fischer 344, females, in drinking water, site: oral cavity, lesion: squamous-cell papilloma, dosed 104 weeks, study length 104 weeks): 16.2 mg/kg/day
TD50 (rat, strain Fischer 344, females, in drinking water, site: spinal cord, lesion: astrocytoma, dosed 104 weeks, study length 104 weeks): 40.3 mg/kg/day
TD50 (rat, strain Fischer 344, females, in drinking water, site: spinal cord, lesion: astrocytoma, dosed 107 weeks, study length 107 weeks): 210 mg/kg/day
TD50 (rat, strain Fischer 344, females, in drinking water, site: thyroid follicle, lesion: several types, types named in the paper, dosed 104 weeks, study length 104 weeks): 19.1 mg/kg/day
TD50 (rat, strain Fischer 344, females, in drinking water, site: thyroid follicle, lesion: several types, types named in the paper, dosed 107 weeks, study length 107 weeks): 8.92 mg/kg/day
TD50 (rat, strain Fischer 344, females, in drinking water, site: thyroid gland, lesion: follicular adenocarcinoma, dosed 104 weeks, study length 104 weeks): 39.5 mg/kg/day
TD50 (rat, strain Fischer 344, females, in drinking water, site: thyroid gland, lesion: follicular adenocarcinoma, dosed 107 weeks, study length 107 weeks): 42.8 mg/kg/day
TD50 (rat, strain Fischer 344, females, in drinking water, site: thyroid gland, lesion: follicular-cell adenoma, dosed 107 weeks, study length 107 weeks): 11.7 mg/kg/day
TD50 (rat, strain Fischer 344, females, in drinking water, site: uterus, lesion: adenocarcinoma, dosed 104 weeks, study length 104 weeks): 26.5 mg/kg/day
TD50 (rat, strain Fischer 344, males, in drinking water, site: adrenal gland, lesion: pheochromocytoma, benign, dosed 104 weeks, study length 104 weeks): 18.1 mg/kg/day
TD50 (rat, strain Fischer 344, males, in drinking water, site: brain, lesion: astrocytoma, dosed 104 weeks, study length 104 weeks): 82.6 mg/kg/day
TD50 (rat, strain Fischer 344, males, in drinking water, site: brain, lesion: astrocytoma, dosed 107 weeks, study length 107 weeks): 76.8 mg/kg/day
TD50 (rat, strain Fischer 344, males, in drinking water, site: brain, lesion: oligodendroglioma, dosed 104 weeks, study length 104 weeks): 339 mg/kg/day
TD50 (rat, strain Fischer 344, males, in drinking water, site: central nervous system, lesion: astrocytoma, dosed 104 weeks, study length 104 weeks): 23.5 mg/kg/day
TD50 (rat, strain Fischer 344, males, in drinking water, site: central nervous system, lesion: glial tumors (oligodendroglioma and astrocytoma), dosed 104 weeks, study length 104 weeks): 24.8 mg/kg/day
TD50 (rat, strain Fischer 344, males, in drinking water, site: central nervous system, lesion: glial tumors (oligodendroglioma and astrocytoma), dosed 107 weeks, study length 107 weeks): 48.9 mg/kg/day
TD50 (rat, strain Fischer 344, males, in drinking water, site: spinal cord, lesion: astrocytoma, dosed 104 weeks, study length 104 weeks): 39.7 mg/kg/day
TD50 (rat, strain Fischer 344, males, in drinking water, site: spinal cord, lesion: astrocytoma, dosed 107 weeks, study length 107 weeks): 82.5 mg/kg/day
TD50 (rat, strain Fischer 344, males, in drinking water, site: spleen, lesion: leukemia, dosed 104 weeks, study length 104 weeks): 45.8 mg/kg/day
TD50 (rat, strain Fischer 344, males, in drinking water, site: thyroid follicle, lesion: several types, types named in the paper, dosed 107 weeks, study length 107 weeks): 7.35 mg/kg/day
TD50 (rat, strain Fischer 344, males, in drinking water, site: thyroid gland, lesion: follicular adenocarcinoma, dosed 107 weeks, study length 107 weeks): 77.2 mg/kg/day
TD50 (rat, strain Fischer 344, males, in drinking water, site: thyroid gland, lesion: follicular-cell adenoma, dosed 104 weeks, study length 104 weeks): 13.5 mg/kg/day
TD50 (rat, strain Fischer 344, males, in drinking water, site: thyroid gland, lesion: follicular-cell adenoma, dosed 107 weeks, study length 107 weeks): 7.49 mg/kg/day
TD50 (rat, strain Fischer 344, males, in drinking water, site: tunica vaginalis, lesion: mesothelioma, benign, dosed 107 weeks, study length 107 weeks): 9.45 mg/kg/day
TD50 (rat, strain Fischer 344, males, in drinking water, site: tunica vaginalis, lesion: mesothelioma, malignant, dosed 104 weeks, study length 104 weeks): 1.75 mg/kg/day

Cc1cc(OC(=O)N(C)C)n(C(C)C)n1
TD50 (mouse, strain B6AKF1, females, oral dosing, site: any site (literature study), lesion: several types, types named in the paper, dosed 76 weeks, study length 76 weeks): 0.023 mg/kg/day (inactive)
carcinogen call (mouse, strain B6AKF1, females, oral dosing, site: liver, lesion: hepatoma, dosed 76 weeks, study length 76 weeks): negative (inactive)
carcinogen call (mouse, strain B6AKF1, females, oral dosing, site: lung, lesion: several types, types named in the paper, dosed 76 weeks, study length 76 weeks): negative (inactive)
TD50 (mouse, strain B6AKF1, males, oral dosing, site: any site (literature study), lesion: several types, types named in the paper, dosed 76 weeks, study length 76 weeks): 0.0124 mg/kg/day (inactive)
TD50 (mouse, strain B6AKF1, males, oral dosing, site: liver, lesion: hepatoma, dosed 76 weeks, study length 76 weeks): 0.0419 mg/kg/day (inactive)
TD50 (mouse, strain B6AKF1, males, oral dosing, site: lung, lesion: adenoma, dosed 76 weeks, study length 76 weeks): 0.0147 mg/kg/day (inactive)
carcinogen call (mouse, strain B6C3F1, females, oral dosing, site: any site (literature study), lesion: several types, types named in the paper, dosed 76 weeks, study length 76 weeks): negative (inactive)
carcinogen call (mouse, strain B6C3F1, females, oral dosing, site: liver, lesion: hepatoma, dosed 76 weeks, study length 76 weeks): negative (inactive)
carcinogen call (mouse, strain B6C3F1, females, oral dosing, site: lung, lesion: adenoma, dosed 76 weeks, study length 76 weeks): negative (inactive)
TD50 (mouse, strain B6C3F1, males, oral dosing, site: any site (literature study), lesion: several types, types named in the paper, dosed 76 weeks, study length 76 weeks): 0.0413 mg/kg/day (inactive)
carcinogen call (mouse, strain B6C3F1, males, oral dosing, site: liver, lesion: hepatoma, dosed 76 weeks, study length 76 weeks): negative (inactive)
TD50 (mouse, strain B6C3F1, males, oral dosing, site: lung, lesion: adenoma, dosed 76 weeks, study length 76 weeks): 0.0156 mg/kg/day (inactive)
